# Legend:
# healthy donor platelets [1] = assay: Procoagulant platelet flow cytometry assay, healthy donor whole blood with APS patient plasma; type: cell-based, human; settings: for Average fold-change in procoagulant platelets: APS patient plasma
# Procedure: (§1) The GSAO-based whole blood PP flow cytometry assay established by the inventors^4 was modified to incorporate patient plasma. Citrated whole blood (13 μL) was incubated with and without agonists, unfractionated heparin (Pfizer) and plasma (5 μL) for 10 minutes with final concentrations of 2.5 mM Gly-Pro-Arg-Pro peptide (Sigma-Aldrich) and 2.5 mM calcium chloride. […] In some experiments, blood was pre-treated with 10 μg/mL IV.3 (StemCell Technologies), a monoclonal antibody against FcγRIIa, for 15 minutes prior to the reaction. Samples were incubated with antibodies to CD45, CD41a, CD62P—or isotype control, and GSAO or GSCA, and fixed before analysis on a BD LSRFortessa X-20.
# Citrated whole blood (13 μL) was incubated with platelet agonists and plasma (5 μL) from healthy donors or patients, for 10 minutes with final concentrations of 2.5 mM Gly-Pro-Arg-Pro peptide (Sigma-Aldrich) and 2.5 mM calcium chloride in a 50 μL reaction. […] The reaction was stopped by further dilution with HBSS, followed by staining with antibodies to CD45 (HI30) (StemCell Technologies), CD41a (HIP8) (BD Biosciences), CD62P (Psel.KO2.3) (eBioscience)—or isotype control (eBioscience), and GSAO or control compound GSCA (4-(N—(S-glutathionylacetyl)amino)benzoic acid). Then, samples were fixed with PAMFix (Platelet Solutions Ltd), centrifuged and resuspended, prior to analysis on a BD LSRFortessa X-20 or BD FACSCanto II cytometer with acquisition of 10000 platelet events. Statistical analyses were performed using GraphPad Prism 9, with statistical significance set at p<0.05.
# healthy donor platelets [2] = assay: Procoagulant platelet flow cytometry assay (GSAO+/CD62P+), healthy donor whole blood with HIT patient plasma; type: cell-based, human; settings: for difference in proportion of PP with HIT+ plasma compared to HIT−, no plasma or autologous plasma: agonist alone, absence of exogenous heparin (SFLLRN 5 μM, ADP 20 μM, CRP-xL 2 μg/mL; FIG. 2)
# Procedure: as §1
# Representative flow cytometry plots from a single donor comparing no plasma with HIT− or HIT+ plasma indicate that addition of HIT+ plasma altered the sub-population profile of the platelets with a marked increase in procoagulant (GSAO+/CD62P+) platelets (FIG. 1A). […] There was also a smaller but statistically significant increase seen with HIT− plasma compared to no plasma (53.63±6.82 vs 42.05±4.24, P<0.05) (FIG. 1B).
# healthy donor platelets [3] = assay: Procoagulant platelet flow cytometry assay, healthy donor whole blood with VITT patient plasma; type: cell-based, human; settings: for proportion of procoagulant platelets: mean±SD
# [4] = cited from earlier work
# [5] = HIT+ plasma, agonist, no heparin (FIGS. 3B, D), mean±SEM
# [6] = HIT+ plasma, combined sample + agonist + therapeutic concentration heparin / high heparin control sample
# [7] = HIT+ plasma, combined sample + agonist + therapeutic concentration heparin / no heparin control sample
molecule,measurement,setting,value
SFLLRN,change in procoagulant response between patient and autologous plasma,"healthy donor platelets [1]; APS plasma vs autologous plasma (FIG. 13A, C)",No significant change
same,proportion of PP,healthy donor platelets [2]; [5],11.19±3.23
same,Average fold-change in procoagulant platelets,healthy donor platelets [2]; [6],8.5 fold
same,Average fold-change in procoagulant platelets,healthy donor platelets [2]; [7],3.7 fold
same,"difference in proportion of PP with HIT+ plasma compared to HIT−, no plasma or autologous plasma",healthy donor platelets [2],no difference
same,PP proportion,"healthy donor platelets [3]; SFLLRN 5 μM, ELISA false positive plasma (FIG. 9C)",3.93±0.78%
same,proportion of procoagulant platelets,"healthy donor platelets [3]; SFLLRN 5 μM, HIT-like VITT (heparin-enhancing VITT) plasma (FIG. 8B)",23.60±8.768
same,proportion of procoagulant platelets,"healthy donor platelets [3]; SFLLRN 5 μM, VITT negative plasma (FIG. 8B)",2.988±0.9564
same,proportion of procoagulant platelets,"healthy donor platelets [3]; SFLLRN 5 μM, VITT plasma (FIG. 8B)",16.34±13.74
same,PP proportion,"healthy donor platelets [3]; SFLLRN 5 μM, VITT-negative plasma (FIG. 9C)",4.50±2.09%
same,PP proportion,"healthy donor platelets [3]; SFLLRN 5 μM, healthy donor blood, no plasma (FIG. 9C)",3.86±0.97%
same,proportion of procoagulant platelets,"healthy donor platelets [3]; SFLLRN 5 μM, no plasma (FIG. 8B)",3.194±0.8185
same,PP proportion,"healthy donor platelets [3]; SFLLRN 5 μM, plasma from healthy individuals (FIG. 9C)",3.57±1.36%
heparin,proportion of PP,"healthy donor platelets [2]; HIT+ plasma, ADP 20 μM, high-dose heparin 100 U/mL",5.16±0.52
same,proportion of PP,"healthy donor platelets [2]; HIT+ plasma, ADP 20 μM, therapeutic-concentration heparin 0.5 U/mL",25.22±5.94
same,proportion of PP,"healthy donor platelets [2]; HIT+ plasma, CRP-xL 2 μg/mL, high-dose heparin 100 U/mL",11.70±2.63
same,proportion of PP,"healthy donor platelets [2]; HIT+ plasma, CRP-xL 2 μg/mL, therapeutic-concentration heparin 0.5 U/mL",26.87±3.58
same,proportion of PP,"healthy donor platelets [2]; HIT+ plasma, SFLLRN 5 μM, high-dose heparin 100 U/mL",4.39±0.35
same,proportion of PP,"healthy donor platelets [2]; HIT+ plasma, SFLLRN 5 μM, therapeutic-concentration heparin 0.5 U/mL",36.53±7.50
same,"difference in PP formation in response to SFLLRN, ADP or CRP-xL","healthy donor platelets [2]; HIT− plasma, therapeutic or high heparin concentrations (FIGS. 3A, C, E)",no difference
same,difference in PP proportion compared to basal levels without exogenous plasma,"healthy donor platelets [2]; heparin 0.5 U/mL or 100 U/mL, HIT+ or HIT− plasma, no platelet agonist (FIG. 2)",no differences
same,PP response,"healthy donor platelets [3]; high-dose heparin 100 U/mL, HIT plasma, SFLLRN 5 μM (FIG. 10B)",3.48±1.02%
same,PP response,"healthy donor platelets [3]; high-dose heparin 100 U/mL, VITT plasma, SFLLRN 5 μM",3.54±1.41%
same,PP response,"healthy donor platelets [3]; low-dose heparin 0.5 U/mL, VITT plasma, SFLLRN 5 μM (FIG. 10A)",12.48±12.84%
same,occurrence of HIT in patients receiving the drug,[4],up to 3%
"Nc1ncnc2c1ncn2[C@@H]1O[C@H](COP(=O)(O)OP(=O)(O)O)[C@@H](O)[C@H]1O [ADP, adenosine diphosphate]",proportion of PP,healthy donor platelets [2]; [5],5.66±0.79
same,Average fold-change in procoagulant platelets,healthy donor platelets [2]; [6],5.5 fold
same,Average fold-change in procoagulant platelets,healthy donor platelets [2]; [7],4.4 fold
same,"difference in proportion of PP with HIT+ plasma compared to HIT−, no plasma or autologous plasma",healthy donor platelets [2],no difference
"thrombin: bovine thrombin (Sigma-Aldrich), platelet agonist",Average fold-change in procoagulant platelets,healthy donor platelets [1]; combined sample / healthy control sample,5.7 fold
same,Average fold-change in procoagulant platelets,healthy donor platelets [1]; combined sample / healthy control sample + autologous plasma,2.1 fold
same,increase in procoagulant platelet proportions relative to no plasma,"healthy donor platelets [1]; autologous plasma, thrombin stimulation (FIG. 13B)",0.3-5.5%
same,increase in procoagulant platelet response,"healthy donor platelets [1]; plasma from an APS patient collected during plasma exchange, thrombin 1 U/mL, CRP-xL 2 μg/mL (FIG. 14)",4.5 fold
same,proportion of PP,"healthy donor platelets [2]; HIT+ plasma, absence of heparin (FIG. 6A, D), thrombin 1 U/mL, CRP-xL 2 μg/mL",18.86±3.94
same,proportion of PP,"healthy donor platelets [2]; HIT− plasma, absence of heparin (FIG. 6A, D), thrombin 1 U/mL, CRP-xL 2 μg/mL",19.55±4.16
same,proportion of PP,"healthy donor platelets [2]; no plasma, absence of heparin (FIG. 6A, D), thrombin 1 U/mL, CRP-xL 2 μg/mL",4.16±0.24
low-molecular-weight heparin,occurrence of HIT in patients receiving the drug,[4],0.2%
